From ChEMBL document CHEMBL4308841, “Synthesis, in vitro antiproliferative activity, and kinase inhibitory effects of pyrazole-containing diarylureas and diarylamides” (Eur J Med Chem, 2018)

What was measured:
A549 = experiment: Growth inhibition of human A549/ATCC cells incubated for 48 hrs by sulforhodamine B assay; format: functional, cell-based; details: A549, 48 h
NCI-H460 = experiment: Growth inhibition of human NCI-H460 cells incubated for 48 hrs by sulforhodamine B assay; format: functional, cell-based; details: NCI-H460, 48 h
SNB-75 = experiment: Growth inhibition of human SNB75 cells incubated for 48 hrs by sulforhodamine B assay; format: functional, cell-based; details: SNB-75, 48 h
U-251 = experiment: Growth inhibition of human U251 cells incubated for 48 hrs by sulforhodamine B assay; format: functional, cell-based; details: U-251, 48 h
786-0 [1] = experiment: Growth inhibition of human 786-0 cells incubated for 48 hrs by sulforhodamine B assay; format: functional, cell-based; details: 786-0, 48 h
A498 = experiment: Growth inhibition of human A498 cells incubated for 48 hrs by sulforhodamine B assay; format: functional, cell-based; details: A498, 48 h
RXF 393 [2] = experiment: Growth inhibition of human RXF393 cells incubated for 48 hrs by sulforhodamine B assay; format: functional, cell-based; details: RXF 393, 48 h
UO-31 = experiment: Growth inhibition of human UO31 cells incubated for 48 hrs by sulforhodamine B assay; format: functional, cell-based; details: UO-31, 48 h
NCI-H522 [3] = experiment: Growth inhibition of human NCI-H522 cells assessed as cell growth at 0.01 uM incubated for 48 hrs by sulforhodamine B assay relative to control; format: functional; details: NCI-H522, 48 h, read-out: Activity
COLO 205 = experiment: Growth inhibition of human COLO205 cells assessed as cell growth at 0.01 uM incubated for 48 hrs by sulforhodamine B assay relative to control; format: functional; details: COLO 205, 48 h, read-out: Activity
HCT-15 = experiment: Growth inhibition of human HCT15 cells assessed as cell growth at 0.01 uM incubated for 48 hrs by sulforhodamine B assay relative to control; format: functional; details: HCT-15, 48 h, read-out: Activity
SK-MEL-2 = experiment: Growth inhibition of human SK-MEL-2 cells assessed as cell growth at 0.01 uM incubated for 48 hrs by sulforhodamine B assay relative to control; format: functional; details: SK-MEL-2, 48 h, read-out: Activity
SK-OV-3 [4] = experiment: Growth inhibition of human SKOV3 cells assessed as cell growth at 0.01 uM incubated for 48 hrs by sulforhodamine B assay relative to control; format: functional; details: SK-OV-3, 48 h, read-out: Activity
RXF 393 [5] = experiment: Growth inhibition of human RXF393 cells assessed as cell growth at 0.01 uM incubated for 48 hrs by sulforhodamine B assay relative to control; format: functional; details: RXF 393, 48 h, read-out: Activity
Hs-578T [6] = experiment: Growth inhibition of human Hs578T cells assessed as cell growth at 0.01 uM incubated for 48 hrs by sulforhodamine B assay relative to control; format: functional; details: read-out: Activity
HL-60(TB) = experiment: Growth inhibition of human HL-60(TB) cells assessed as cell growth at 0.1 uM incubated for 48 hrs by sulforhodamine B assay relative to control; format: functional; details: HL-60, 48 h, read-out: Activity
NCI-H23 = experiment: Growth inhibition of human NCI-H23 cells assessed as cell growth at 0.1 uM incubated for 48 hrs by sulforhodamine B assay relative to control; format: functional; details: NCI-H23, 48 h, read-out: Activity
SF-539 = experiment: Growth inhibition of human SF539 cells assessed as cell growth at 0.1 uM incubated for 48 hrs by sulforhodamine B assay relative to control; format: functional; details: SF-539, 48 h, read-out: Activity
ACHN = experiment: Growth inhibition of human ACHN cells assessed as cell growth at 0.1 uM incubated for 48 hrs by sulforhodamine B assay relative to control; format: functional; details: read-out: Activity
RXF 393 [7] = experiment: Growth inhibition of human RXF393 cells assessed as cell growth at 0.1 uM incubated for 48 hrs by sulforhodamine B assay relative to control; format: functional; details: RXF 393, 48 h, read-out: Activity
BT-549 = experiment: Growth inhibition of human BT549 cells assessed as cell growth at 0.1 uM incubated for 48 hrs by sulforhodamine B assay relative to control; format: functional; details: BT-549, 48 h, read-out: Activity
SK-OV-3 [8] = experiment: Growth inhibition of human SKOV3 cells assessed as cell growth at 1 uM incubated for 48 hrs by sulforhodamine B assay relative to control; format: functional; details: SK-OV-3, 48 h, read-out: Activity
786-0 [9] = experiment: Growth inhibition of human 786-0 cells assessed as cell growth at 1 uM incubated for 48 hrs by sulforhodamine B assay relative to control; format: functional; details: 786-0, 48 h, read-out: Activity
DU-145 = experiment: Growth inhibition of human DU145 cells assessed as cell growth at 1 uM incubated for 48 hrs by sulforhodamine B assay relative to control; format: functional; details: DU-145, 48 h, read-out: Activity
RPMI-8226 = experiment: Growth inhibition of human RPMI8226 cells assessed as cell growth at 100 uM incubated for 48 hrs by sulforhodamine B assay relative to control; format: functional; details: RPMI-8226, 48 h, read-out: Activity
NCI-H522 [10] = experiment: Growth inhibition of human NCI-H522 cells assessed as cell growth at 100 uM incubated for 48 hrs by sulforhodamine B assay relative to control; format: functional; details: NCI-H522, 48 h, read-out: Activity
SW-620 = experiment: Growth inhibition of human SW620 cells assessed as cell growth at 100 uM incubated for 48 hrs by sulforhodamine B assay relative to control; format: functional; details: SW-620, 48 h, read-out: Activity
Hs-578T [11] = experiment: Growth inhibition of human Hs578T cells assessed as cell growth at 100 uM incubated for 48 hrs by sulforhodamine B assay relative to control; format: functional; details: read-out: Activity
[12] = read-out: LC50 (the source's name)
[13] = read-out: pLC50 (the source's name) (converted)

## O=C(Nc1cccc(-n2cc(-c3ccncc3)c(-c3cc(O)cc(Cl)c3)n2)c1)Nc1ccc(Cl)c(Cl)c1
A549
  IC50: 1.96 µM
A549; read-out: GI50
  GI50: 1.96 µM
A549; [12]
  CC50: > 100 µM
A549; read-out: TGI
  TGI: 75.4 µM
A549; read-out: pGI50 (converted)
  GI50: 1.95 µM
A549; [13]
  CC50: > 100 µM
A549; read-out: pTGI (converted)
  TGI: 7.59 µM
NCI-H460; read-out: GI50
  GI50: 2.18 µM
NCI-H460; [12]
  CC50: > 100 µM
NCI-H460; read-out: TGI
  TGI: 61.4 µM
NCI-H460; read-out: pGI50 (converted)
  GI50: 2.19 µM
NCI-H460; [13]
  CC50: > 100 µM
NCI-H460; read-out: pTGI (converted)
  TGI: 6.17 µM
SNB-75; read-out: GI50
  GI50: 1.38 µM
SNB-75; [12]
  CC50: > 100 µM
SNB-75; read-out: TGI
  TGI: 48.2 µM
SNB-75; read-out: pGI50 (converted)
  GI50: 1.38 µM
SNB-75; [13]
  CC50: > 100 µM
SNB-75; read-out: pTGI (converted)
  TGI: 4.79 µM
U-251
  IC50: 1.44 µM
U-251; read-out: GI50
  GI50: 1.44 µM
U-251; [12]
  CC50: 5.51 µM
U-251; read-out: TGI
  TGI: 30 µM
U-251; read-out: pGI50 (converted)
  GI50: 1.45 µM
U-251; [13]
  CC50: 6.61 µM
U-251; read-out: pTGI (converted)
  TGI: 3.09 µM
786-0 [1]; read-out: GI50
  GI50: 1.48 µM
786-0 [1]; [12]
  CC50: 9.31 µM
786-0 [1]; read-out: TGI
  TGI: 37.1 µM
786-0 [1]; read-out: pGI50 (converted)
  GI50: 1.48 µM
786-0 [1]; [13]
  CC50: 9.33 µM
786-0 [1]; read-out: pTGI (converted)
  TGI: 3.72 µM
A498; read-out: GI50
  GI50: 2.09 µM
A498; [12]
  CC50: 4.13 µM
A498; read-out: TGI
  TGI: 90.6 µM
A498; read-out: pGI50 (converted)
  GI50: 2.09 µM
A498; [13]
  CC50: 41.7 µM
A498; read-out: pTGI (converted)
  TGI: 9.12 µM
RXF 393 [2]
  LC50: 8.13 µM
RXF 393 [2]; read-out: GI50
  GI50: 0.556 µM
RXF 393 [2]; read-out: TGI
  TGI: 24.6 µM
RXF 393 [2]; read-out: pGI50 (converted)
  GI50: 0.55 µM
RXF 393 [2]; read-out: pTGI (converted)
  TGI: 2.45 µM
UO-31
  IC50: 1.91 µM
UO-31; read-out: GI50
  GI50: 1.91 µM
UO-31; [12]
  CC50: > 100 µM
UO-31; read-out: TGI
  TGI: 65.1 µM
UO-31; read-out: pGI50 (converted)
  GI50: 1.91 µM
UO-31; [13]
  CC50: > 100 µM
UO-31; read-out: pTGI (converted)
  TGI: 6.46 µM
NCI-H522 [3]
  growth at 0.01 µM: 88%
COLO 205
  growth at 0.01 µM: 106%
HCT-15
  growth at 0.01 µM: 59%
SK-MEL-2
  growth at 0.01 µM: 59%
SK-OV-3 [4]
  growth at 0.01 µM: 108%
RXF 393 [5]
  growth at 0.01 µM: 93%
Hs-578T [6]
  growth at 0.01 µM: 98%
HL-60(TB)
  growth at 0.1 µM: 100%
NCI-H23
  growth at 0.1 µM: 97%
SF-539
  growth at 0.1 µM: 95%
ACHN
  growth at 0.1 µM: 95%
RXF 393 [7]
  growth at 0.1 µM: 85%
BT-549
  growth at 0.1 µM: 93%
SK-OV-3 [8]
  growth at 1 µM: 110%
786-0 [9]
  growth at 1 µM: 71%
DU-145
  growth at 1 µM: 90%
RPMI-8226
  growth at 100 µM: -27%
NCI-H522 [10]
  growth at 100 µM: -55%
SW-620
  growth at 100 µM: -36%
Hs-578T [11]
  growth at 100 µM: 9%
